Data as given in ChEMBL document CHEMBL3425426, “Discovery of DS-1558: A Potent and Orally Bioavailable GPR40 Agonist” (ACS Med Chem Lett, 2015).

How the values were obtained:
[1] = target: Free fatty acid receptor 1 (Homo sapiens, UniProt O14842); test: Agonist activity at human GPR40 expressed in CHO cells assessed as calcium flux by FLIPR assay; assay type: functional, cell-based
[2] = target: T1, Peroxisome proliferator-activated receptor gamma (Homo sapiens, UniProt P37231); test: Agonist activity at PPARgamma (unknown origin)
T1 sequence (P37231 whole entry): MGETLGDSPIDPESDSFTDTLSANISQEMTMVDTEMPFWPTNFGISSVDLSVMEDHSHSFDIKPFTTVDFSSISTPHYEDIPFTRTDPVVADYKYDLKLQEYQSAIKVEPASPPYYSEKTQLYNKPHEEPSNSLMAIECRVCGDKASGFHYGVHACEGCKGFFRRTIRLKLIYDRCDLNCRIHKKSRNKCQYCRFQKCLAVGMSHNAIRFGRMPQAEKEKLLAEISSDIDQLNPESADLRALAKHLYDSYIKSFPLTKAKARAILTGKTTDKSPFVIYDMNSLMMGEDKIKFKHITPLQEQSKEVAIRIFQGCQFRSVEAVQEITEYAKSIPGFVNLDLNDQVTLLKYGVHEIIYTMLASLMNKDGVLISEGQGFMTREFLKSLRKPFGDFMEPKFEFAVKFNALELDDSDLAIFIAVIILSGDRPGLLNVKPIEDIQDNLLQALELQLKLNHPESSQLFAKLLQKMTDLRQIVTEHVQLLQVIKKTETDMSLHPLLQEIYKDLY

[3] = target: T2, Peroxisome proliferator-activated receptor gamma (Homo sapiens) (UniProt P37231); test: Agonist activity at PPARgamma (unknown origin) relative to rosiglitazone
T2 sequence (whole entry): T1 sequence (P37231 whole entry)

Free fatty acid receptor 1, sequence (O14842 whole entry): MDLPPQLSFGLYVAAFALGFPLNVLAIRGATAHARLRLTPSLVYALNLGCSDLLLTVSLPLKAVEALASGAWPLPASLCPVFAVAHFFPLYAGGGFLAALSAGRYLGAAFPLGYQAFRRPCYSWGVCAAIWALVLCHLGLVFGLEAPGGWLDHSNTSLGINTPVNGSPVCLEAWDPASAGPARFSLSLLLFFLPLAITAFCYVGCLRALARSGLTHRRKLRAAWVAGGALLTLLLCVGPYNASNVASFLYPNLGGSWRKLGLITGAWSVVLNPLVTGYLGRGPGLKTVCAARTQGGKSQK

EC50 [1] | EC50 [2] | Emax [3] | Compound
3.9 nM |  |  | CCO[C@@H](CC(=O)O)c1ccc(OCc2ccc(Cl)c(Cl)c2)cc1
62 nM |  |  | CCO[C@@H](CC(=O)O)c1ccc(O[C@@H]2CCCc3ccccc32)cc1
5.3 nM | 10400 nM | 11.3% | CCO[C@@H](CC(=O)O)c1ccc(OCc2ccc(C(F)(F)F)cc2)cc1

Compound | EC50 [1] | EC50 [2] | Emax [3]
CCO[C@H](CC(=O)O)c1ccc(O[C@H]2CCc3c2cccc3C(F)(F)F)cc1 | 2600 nM |  | 
